Assay type in all cases: functional
Assay [1] relates to P388. Description: Antitumor activity against mouse P388 cells. Particulars: read-out: ED50 (the source's name).
In assay [2] the test system is P388. Description: In vivo antitumor activity against mouse P388 cells at 40 ug/kg relative to control.
Assay [3] has as its system P388. Description: In vivo antitumor activity against mouse P388 cells at 20 ug/kg relative to control.

Structures are written as SMILES. Values after ≈ are worked out from the molar mass of the structure shown.

For the molecule `C=C(C)[C@]12C[C@@H](C)[C@@]34OC5(CCCCCCC[C@H](C)[C@H]6[C@H](C)[C@H](OC(=O)c7ccccc7)[C@@](O)([C@H](O)[C@@]7(CO)O[C@H]7[C@H]3[C@H]1O5)[C@@H]64)O2` [PIMELEA FACTOR P2], in the assay with P388 [1], the EC50 was found to be 0.79 ng/mL (≈ 1.24 nM). Besides, the T/C with P388 [2] amounted to 130; in the assay on P388 [3], 132.

Turning to `C=C(C)[C@]12C[C@@H](C)[C@@]34O[C@](CCCCCCCCC)(O[C@@H]1[C@@H]3[C@@H]1O[C@]1(CO)[C@@H](O)[C@]1(O)C(=O)C(C)=C[C@H]14)O2` [SIMPLEXIN], in the assay with P388 [1], the EC50 came out at 5 ng/mL (≈ 9.39 nM).

Source of the values: ChEMBL document CHEMBL1145666, “Geriatrics photo quiz. Thoracic aortic aneurysm” (1983).
